The subject of experiment [1] is control CHO-K1 cells. In words: [14C]cephalexin uptake by control CHO-K1 cells transfected with plasmid pRc/RSV. The experiment is classed as in vitro ADME, Chinese hamster. As to conditions: Gly-L-Pro coincubation.
Experiment [2] deals with T1, influx peptide transporter (Homo sapiens, UniProt Q12864).
T1 sequence (Q12864 23-832 K115E/E734D/E739A): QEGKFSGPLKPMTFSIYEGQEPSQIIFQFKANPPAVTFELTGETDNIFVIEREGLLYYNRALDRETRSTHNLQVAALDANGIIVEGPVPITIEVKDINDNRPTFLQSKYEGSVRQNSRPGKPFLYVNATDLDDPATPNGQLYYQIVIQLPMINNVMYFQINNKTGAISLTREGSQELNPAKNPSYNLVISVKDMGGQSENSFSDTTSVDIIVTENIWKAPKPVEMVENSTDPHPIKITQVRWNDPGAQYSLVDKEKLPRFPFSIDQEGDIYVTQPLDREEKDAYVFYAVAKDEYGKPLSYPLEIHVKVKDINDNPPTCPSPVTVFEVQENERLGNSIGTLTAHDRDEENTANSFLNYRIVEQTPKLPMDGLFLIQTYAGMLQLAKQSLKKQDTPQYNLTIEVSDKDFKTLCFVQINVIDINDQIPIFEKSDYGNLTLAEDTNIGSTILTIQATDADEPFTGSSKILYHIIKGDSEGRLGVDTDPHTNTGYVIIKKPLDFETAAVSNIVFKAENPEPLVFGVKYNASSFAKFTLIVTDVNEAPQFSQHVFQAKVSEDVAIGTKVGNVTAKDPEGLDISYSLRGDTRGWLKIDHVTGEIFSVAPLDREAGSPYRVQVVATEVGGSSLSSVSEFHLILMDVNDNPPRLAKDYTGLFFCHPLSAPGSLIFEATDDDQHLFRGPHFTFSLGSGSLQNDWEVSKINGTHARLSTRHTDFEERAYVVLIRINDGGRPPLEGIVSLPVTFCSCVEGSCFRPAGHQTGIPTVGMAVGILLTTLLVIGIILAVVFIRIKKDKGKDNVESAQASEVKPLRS
As to conditions: Clone 9; 50 mM Gly-L-Pro.
Procedure: Chinese hamster ovary cells (CHO-K1, ATCC CCL 61) were transfected with plasmid pPSJ179 using a calcium precipitation protocol described in the Stratagene mammalian transfection kit (Stratagene Catalog #200285). […] The calcium precipitation protocol transfection method was carried out as follows. Subconfluent CHO-K1 cells (100 mm culture dish, 1-day post plating) were incubated for 20 minutes at 37° C. with 20 μg of a calcium-precipitated DNA sample. The DNA sample was either plasmid pPSJ179 or, as control, plasmid pRc/RSV. Subsequently, the cells were grown for 3 days in F12 medium containing 10% fetal bovine serum (Hyclone Laboratories Inc., Logan, Utah 84321). Afterwards, the medium was replaced with growth medium containing the selection agent, G-418 sulfate at 300 μg/ml (Gibco, Grand Island, N.Y.) and cells were grown in a 3% CO2 incubator at 37° C. for 13 days. Colonies which were selected for further study were grown for selected time periods in the selection medium at 37° C. in a 5% CO2 incubator. Transfectants were evaluated for expression of the influx peptide transporter using an enzyme linked immunosorbent assay (ELISA) and monoclonal antibody reactive with the influx peptide transporter.
The transfected CHO-K1 cells (~0.5 to 1×10^5 cells per well) were grown for 3 days in a Costar 24-well plate as described above. […]

Structures are written as SMILES. Where a SMILES comes first, the peptide text is derived from it.

With `NCC(=O)N1CCC[C@H]1C(=O)O` [Gly-L-Pro] (H-Gly-Pro-OH), the “inhibition of transport of 1 mM [14C]cephalexin” value in experiment [1] is recorded as “not inhibited”. Further, the “inhibition of uptake of 1 mM cephalexin” value in experiment [2] is “inhibited”.

Source of the values: patent US5710018A, “Mammalian influx peptide transporter” (Eli Lilly and Company, priority 1995, dated 1998).
